Non-standard residues stand in square brackets, D forms with d. Residues, ends and D or L forms follow the SMILES beside them. pY = N[C@@H](Cc1ccc(OP(=O)(O)O)cc1)C(=O)O
Experiments:
Lyn SH2 domain = target: T1, Lyn SH2 domain (Homo sapiens, UniProt P07948); assay: competitive fluorescence polarization, Lyn SH2 domain; format: binding; conditions: Table S3, unpaired validation; competition fluorescence polarization; probe FITC-Ahx-GDG-pY-EEISPLLL-NH2 30 nM; [SH2] 106 nM; mean
T1 construct: The human SH2 domains from Fyn (142–248), Lyn (121–228); His6-SUMO (N, cleaved yes); host or cells: Escherichia coli C43(DE3) with BirA helper plasmid
T1 sequence (P07948 121-228): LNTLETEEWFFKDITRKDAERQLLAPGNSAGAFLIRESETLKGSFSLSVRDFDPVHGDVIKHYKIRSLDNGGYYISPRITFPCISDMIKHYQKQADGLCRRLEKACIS
Description: First, we generated bacterial display datasets and affinity models for three additional SH2 domains from Src‐family kinases Lyn, Blk, and Yes (Figure 5a). For validation of the affinity model for Lyn, we selected a subset of phosphopeptides that were likely to fall within the dynamic range of the competitive fluorescence polarization assay (see “Methods” for details). […] We measured binding affinities to the corresponding phosphopeptides by fluorescence polarization.
The human SH2 domains from Fyn (142–248), Lyn (121–228), Blk (116–222), and Yes (150–257) kinases were PCR‐amplified from plasmids encoding the full‐length proteins and cloned using the NEBuilder® HiFi DNA Assembly Master Mix (NEB) in a pET plasmid backbone that was PCR‐amplified with the primers pETXbaI_for and pETXhoI_rev (these and all other primers are defined in Table S7) from the pET‐His6‐SUMO‐Grb2(SH2), as reported before (Li et al., [2023]), thus adding an N‐terminal His6‐SUMO tag and a C‐terminal AviTag® for biotinylation. The SH2 plasmids are available via Addgene: pET28‐His6‐SUMO‐Fyn‐SH2‐AviTag (214202), pET28‐His6‐SUMO‐Blk‐SH2‐AviTag (214204), pET28‐His6‐SUMO‐Lyn‐SH2‐AviTag (214207), pET28‐His6‐SUMO‐Yes‐SH2‐AviTag (214208), and pET28‐His6‐SUMO‐cSrc‐SH2‐AviTag (214230). For expression and parallel biotinylating of the SH2 domain product, Escherichia coli C43(DE3) cells carrying a BirA encoding helper plasmid were transformed with the respective SH2 domain expression construct and plated to grow overnight at 37°C on a streptomycin and kanamycin (100 μg/mL both) LB‐agar plate. The colonies were collected in 10 mL of TB medium and used to inoculate 1 L of TB medium and grown at 37°C and 215 rpm. Upon reaching an OD600 of 0.5, the expression of the SH2 domains was induced by adding IPTG up to 0.5 mM and biotin up to 250 μM, and the expressing culture was incubated at 18°C for 16–18 h. After removing the medium through centrifugation, the cell pellets were snap‐frozen in liquid N2 and stored at −80°C until purification. To purify the biotinylated SH2 domains, the cell pellets were resuspended in lysis buffer (50 mM Tris, pH 7.5, 300 mM NaCl, 20 mM imidazole, 10% glycerol), supplementing them with 2 mM β‐mercaptoethanol and 1× protease inhibitor cocktail before lysis by sonication (Fisherbrand Sonic Dismembrator). The soluble fraction separated after centrifugation at 33,000 g was run on a HisTrap HP column (Cytiva), then washed with 10 CV of the lysis buffer followed by 10 CV of wash buffer (50 mM Tris, pH 7.5, 50 mM NaCl, 10 mM imidazole, 10% glycerol). Next, the protein was eluted with elution buffer (50 mM Tris, pH 7.5, 50 mM NaCl, 250 mM imidazole, 10% glycerol) directly onto a 5 mL HiTrap Q HP anion exchange column (Cytiva). The biotinylated SH2 domain was then eluted from the anion exchange column with an NaCl gradient (50 mM Tris, pH 7.5, 0.05–1 M NaCl, 1 mM TCEP‐HCl), and the His6‐SUMO tag was cleaved using 0.05 mg/mL Ulp1 protease. The biotinylated SH2 domain was then collected in a flowthrough after running the cleavage reaction over a HisTrap HP column. Finally, the biotinylated SH2 domain in the flowthrough was run on a HiLoad 16/600 Superdex 75 pg size exclusion column (Cytiva) in storage buffer (20 mM HEPES, pH 7.5, 150 mM NaCl, 10% glycerol).

c-Src SH2 domain = target: T2, c-Src SH2 domain (Homo sapiens, UniProt P12931); assay: competitive fluorescence polarization, c-Src SH2 domain; format: binding; conditions: Table S3, unpaired validation; competition fluorescence polarization; probe FITC-Ahx-GDG-pY-EEISPLLL-NH2 30 nM; [SH2] 123-126 nM; mean
T2 construct: the SH2 domain from c‐Src kinase; His6-SUMO (N, cleaved yes); host or cells: Escherichia coli C43(DE3) with BirA helper plasmid
T2 sequence (P12931 151-248 limits assumed): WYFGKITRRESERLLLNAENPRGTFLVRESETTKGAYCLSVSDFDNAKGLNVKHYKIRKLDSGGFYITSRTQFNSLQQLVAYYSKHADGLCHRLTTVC
Description: Measured binding constants (K D) from competition mode fluorescence polarization experiments were obtained using the purified SH2 domains used for the selection and chosen sets of peptides with a phosphorylated tyrosine exactly as described previously (Li et al., [2023]). […] Before performing the competition mode fluorescence polarization measurement, the K D of the probes for the respective SH2 domains was first measured in a direct mode of fluorescence polarization. […] Using the validation data for the Fyn SH2 domain, the range of predicted relative binding affinities that corresponds to the range between 1 nM and 100 μM, which is the dynamic range of reliable measurement of absolute binding affinities using our competitive fluorescence polarization setup, was defined and used to further filter the set of candidate phosphopeptides. A subset that evenly covers the chosen range of predicted relative affinities was finally picked for the validation measurements of the Lyn SH2 domain.

Grb2 SH2 domain = Grb2 SH2 domain (Homo sapiens, UniProt P62993); assay: biochemical
Chain of Grb2 SH2 domain (P62993 60-152 limits assumed): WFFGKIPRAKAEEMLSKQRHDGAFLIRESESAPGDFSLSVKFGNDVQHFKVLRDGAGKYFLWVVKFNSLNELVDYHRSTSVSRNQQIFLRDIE
Description: Measured binding constants (K D) from competition mode fluorescence polarization experiments were obtained using the purified SH2 domains used for the selection and chosen sets of peptides with a phosphorylated tyrosine exactly as described previously (Li et al., [2023]). […] (c‐Src SH2 consensus) was used as the probe, and for the Grb2 SH2 domain, the fluorescently labeled peptide FITC‐Ahx‐FDDPS(pY)VNVQN (Ahx = 6‐aminohexanoic acid) from the Y177 phospho‐tyrosine site of BCR. Before performing the competition mode fluorescence polarization measurement, the K D of the probes for the respective SH2 domains was first measured in a direct mode of fluorescence polarization. […] For the set of peptides where single point mutations were compared, phosphopeptides reported in the PhosphoSitePlus database (Hornbeck et al., [2015]) and previously shown to bind to the c‐Src SH2 domain (Li et al., [2023]) were chosen alongside their respective single point mutants. To choose phosphopeptides for validation of the Lyn SH2 domain, we started from all verified phosphopeptides found in PhosphoSitePlus, filtered based on their co‐expression with the Lyn kinase using the STRING database. Using the validation data for the Fyn SH2 domain, the range of predicted relative binding affinities that corresponds to the range between 1 nM and 100 μM, which is the dynamic range of reliable measurement of absolute binding affinities using our competitive fluorescence polarization setup, was defined and used to further filter the set of candidate phosphopeptides. A subset that evenly covers the chosen range of predicted relative affinities was finally picked for the validation measurements of the Lyn SH2 domain. For the c‐Src, Yes, and Blk SH2 domains, a combination of the previously chosen peptides was used, after verifying that their predicted relative affinities for the given SH2 domain fell within the same measurable range. All peptides containing phosphorylated tyrosine, both fluorescently labeled and non‐labeled, were produced by SynPeptide (China).

Row | Structure (SMILES) | Kd (Lyn SH2 domain) | Kd (c-Src SH2 domain) | Kd (Grb2 SH2 domain)
1 | CC(=O)N[C@@H](CCC(N)=O)C(=O)NCC(=O)N[C@@H](CCCNC(=N)N)C(=O)N[C@@H](CCCNC(=N)N)C(=O)N[C@@H](CCC(=O)O)C(=O)N[C@@H](CCC(=O)O)C(=O)N[C@@H](Cc1ccc(OP(=O)(O)O)cc1)C(=O)N[C@@H](CC(=O)O)C(=O)N[C@H](C(=O)N[C@@H](CC(C)C)C(=O)N[C@@H](CC(=O)O)C(=O)N[C@@H](CCCCN)C(=O)NCC(N)=O)C(C)C [CD3Z pY83] (Ac-QGRREE[pY]DVLDKG-NH2) | 2950 nM | – | –
2 | CC[C@H](C)[C@H](NC(=O)[C@H](CCC(=O)O)NC(=O)[C@H](CC(=O)O)NC(=O)[C@H](Cc1ccc(OP(=O)(O)O)cc1)NC(=O)[C@@H](NC(=O)[C@H](CCCNC(=N)N)NC(=O)[C@H](CO)NC(=O)[C@H](CCC(=O)O)NC(=O)[C@H](C)NC(=O)[C@H](CCC(N)=O)NC(C)=O)[C@@H](C)CC)C(=O)N[C@@H](CC(C)C)C(=O)N[C@@H](CCC(N)=O)C(=O)NCC(N)=O [CD84 pY296] (Ac-QAESRI[pY]DEILQG-NH2) | 91 nM | 28.1 nM | –
3 | CC[C@H](C)[C@H](NC(=O)[C@H](CC(N)=O)NC(=O)[C@H](CCCCN)NC(=O)[C@H](Cc1ccc(OP(=O)(O)O)cc1)NC(=O)[C@H](CC(=O)O)NC(=O)[C@@H](NC(=O)CNC(=O)CNC(=O)[C@H](CCC(=O)O)NC(=O)[C@H](CCC(N)=O)NC(C)=O)C(C)C)C(=O)N[C@@H](Cc1c[nH]cn1)C(=O)N[C@@H](CC(C)C)C(=O)NCC(N)=O [CSF1R pY699] (Ac-QEGGVD[pY]KNIHLG-NH2) | 22800 nM | – | –
4 | CC[C@H](C)[C@H](NC(=O)[C@H](CC(=O)O)NC(=O)[C@H](CCC(N)=O)NC(C)=O)C(=O)N[C@@H](CC(N)=O)C(=O)N[C@@H](CO)C(=O)N[C@@H](CC(C)C)C(=O)N[C@@H](Cc1ccc(OP(=O)(O)O)cc1)C(=O)N[C@@H](CC(=O)O)C(=O)N[C@H](C(=O)N[C@@H](CO)C(=O)N[C@@H](CCCNC(=N)N)C(=O)N[C@@H](CCSC)C(=O)NCC(N)=O)C(C)C [PLCG2 pY 753] (Ac-QDINSL[pY]DVSRMG-NH2) | 11700 nM | 12300 nM | –
5 | CC(=O)N[C@@H](CCC(N)=O)C(=O)N[C@@H](Cc1c[nH]cn1)C(=O)N[C@@H](CCCCN)C(=O)N[C@@H](CCC(=O)O)C(=O)N[C@@H](CC(=O)O)C(=O)N[C@H](C(=O)N[C@@H](Cc1ccc(OP(=O)(O)O)cc1)C(=O)N[C@@H](CCC(=O)O)C(=O)N[C@@H](CC(N)=O)C(=O)N[C@@H](CC(C)C)C(=O)N[C@@H](Cc1c[nH]cn1)C(=O)N[C@H](C(=O)NCC(N)=O)[C@@H](C)O)C(C)C [PTPN6 pY564] (Ac-QHKEDV[pY]ENLHTG-NH2) | 943 nM | 909 nM | –
6 | CC[C@H](C)[C@H](NC(=O)[C@H](CCC(=O)O)NC(=O)[C@H](CO)NC(=O)[C@H](Cc1ccc(OP(=O)(O)O)cc1)NC(=O)[C@H](CCC(=O)O)NC(=O)[C@@H](NC(=O)[C@@H](NC(=O)[C@H](CO)NC(=O)[C@@H]1CCCN1C(=O)[C@H](CCC(N)=O)NC(C)=O)[C@@H](C)O)[C@@H](C)O)C(=O)N[C@@H](CCCCN)C(=O)N[C@H](C(=O)NCC(N)=O)[C@@H](C)O [SIGLEC5 pY544] (Ac-QPSTTE[pY]SEIKTG-NH2) | 362 nM | 282 nM | –
7 | CC(=O)N[C@@H](CCC(N)=O)C(=O)N[C@@H](CC(=O)O)C(=O)N[C@@H](CC(=O)O)C(=O)N[C@@H](CCC(N)=O)C(=O)N[C@@H](CCC(=O)O)C(=O)N[C@H](C(=O)N[C@@H](Cc1ccc(OP(=O)(O)O)cc1)C(=O)N[C@@H](CC(=O)O)C(=O)N[C@@H](CC(=O)O)C(=O)N[C@H](C(=O)N[C@@H](C)C(=O)N[C@@H](CCC(=O)O)C(=O)NCC(N)=O)C(C)C)C(C)C [SLAP-130 pY595] (Ac-QDDQEV[pY]DDVAEG-NH2) | 240 nM | 191 nM | –
8 | CC[C@H](C)[C@H](NC(=O)[C@H](CC(=O)O)NC(=O)[C@H](CC(=O)O)NC(=O)[C@H](Cc1ccc(OP(=O)(O)O)cc1)NC(=O)[C@@H](NC(=O)[C@H](CCC(=O)O)NC(=O)CNC(=O)[C@H](CC(=O)O)NC(=O)[C@H](CC(N)=O)NC(=O)[C@H](CCC(N)=O)NC(C)=O)[C@@H](C)CC)C(=O)N[C@@H](C)C(=O)N[C@@H](CC(=O)O)C(=O)NCC(N)=O [SLAP-130 pY771] (Ac-QNDGEI[pY]DDIADG-NH2) | 96.8 nM | 94 nM | –
9 | CC[C@H](C)[C@H](NC(=O)[C@H](CC(N)=O)NC(=O)[C@H](Cc1c[nH]cn1)NC(=O)[C@H](CCC(N)=O)NC(C)=O)C(=O)N[C@@H](Cc1c[nH]cn1)C(=O)N[C@@H](CO)C(=O)N[C@@H](Cc1ccc(OP(=O)(O)O)cc1)C(=O)N[C@H](C(=O)N[C@@H](CC(N)=O)C(=O)N[C@H](C(=O)N1CCC[C@H]1C(=O)N1CCC[C@H]1C(=O)NCC(N)=O)[C@@H](C)CC)[C@@H](C)CC [Syn-G2-2] (Ac-QHNIHS[pY]INIPPG-NH2) | – | – | 3.99 nM
10 | CC[C@H](C)[C@H](NC(=O)[C@H](CC(N)=O)NC(=O)[C@H](Cc1c[nH]cn1)NC(=O)[C@H](Cc1ccc(OP(=O)(O)O)cc1)NC(=O)[C@H](CCCNC(=N)N)NC(=O)[C@H](CCC(N)=O)NC(=O)[C@H](Cc1c[nH]cn1)NC(=O)CNC(=O)[C@H](CC(C)C)NC(=O)[C@H](CCC(N)=O)NC(C)=O)C(=O)N[C@H](C(=O)N1CCC[C@H]1C(=O)NCC(N)=O)[C@@H](C)O [Syn-G2-5] (Ac-QLGHQR[pY]HNITPG-NH2) | – | – | 487 nM
11 | CC(=O)N[C@@H](CCC(N)=O)C(=O)N[C@@H](CCC(=O)O)C(=O)N[C@@H](Cc1c[nH]c2ccccc12)C(=O)N[C@@H](CCCNC(=N)N)C(=O)N[C@@H](CO)C(=O)N[C@@H](CCC(N)=O)C(=O)N[C@@H](Cc1ccc(OP(=O)(O)O)cc1)C(=O)N[C@@H](CCC(=O)O)C(=O)N[C@@H](C)C(=O)N[C@@H](CC(C)C)C(=O)N[C@@H](CCCCN)C(=O)N[C@@H](CCC(=O)O)C(=O)NCC(N)=O [TRAF3IP3 pY322] (Ac-QEWRSQ[pY]EALKEG-NH2) | 3940 nM | 6480 nM | –
